{
  "source": "patent US11008570B2",
  "about": "“3′ end caps for RNAi agents for use in RNA interference” (Novartis AG, priority 2013, dated 2021)",
  "key": {"[1]": {"test_system": "FVII (Factor VII), mF7-III target gene", "assay": "RNA interference against FVII by 3′-capped siRNAs (FIG. 2)", "design": "species or system mouse", "conditions": "19-mer blunt-ended mF7-III siRNA, A12S17"}, "[2]": {"test_system": "human HAMP (Hepcidin) gene", "assay": "Hepcidin mRNA down regulation by HAMP siRNA-PAZ ligand conjugates in HuH-7 cells", "assay_type": "cell-based", "conditions": "Hepcidin RNAi agent, format S402+ribitol+MOE clamp"}, "[3]": {"assay": "Serum stability of siRNAs with 3′ end caps in human serum", "conditions": "100% human serum, 37° C., up to 24 h; gel with SYBR gold"}, "[4]": {"assay": "Serum stability of siRNAs with 3′ end caps in mouse serum", "conditions": "100% mouse serum, 37° C., up to 24 h; compared to luciferase and dTsdT controls"}, "human SSB": {"test_system": "human SSB", "assay": "Human SSB RNAi agent, RNA interference in vitro", "assay_type": "cell-based"}},
  "data": [
    {"compound": "C1C2CC3CC1CC(C2)C3", "note": "[Adamantane]", "values": [
      {"measurement": "ability of the RNAi agent to perform RNA interference (FIG. 2)", "setting": "[1]", "value": "allow the RNAi agent to perform RNA interference"}
    ]},
    {"compound": "c1ccc(-c2ccccc2)cc1", "note": "[BP (biphenyl), biphenyl]", "values": [
      {"measurement": "Hepcidin KD at 5 nM in vitro (%)", "setting": "[2]", "value": 68, "unit": "%"}
    ]},
    {"compound": "c1ccc(-c2ccccc2)cc1", "note": "[Biphenyl]", "values": [
      {"measurement": "stability in human serum", "setting": "[3]", "value": "increased stability"},
      {"measurement": "stability in mouse serum", "setting": "[4]", "value": "increased stability"},
      {"measurement": "ability of the RNAi agent to perform RNA interference (FIG. 2)", "setting": "[1]", "value": "allow the RNAi agent to perform RNA interference"}
    ]},
    {"compound": "OCCOCCOCCO", "note": "[Triethylene glycol]", "values": [
      {"measurement": "ability of the RNAi agent to perform RNA interference (FIG. 2)", "setting": "[1]", "value": "allow the RNAi agent to perform RNA interference"}
    ]},
    {"compound": "hs_SSB_309_AS_18mer-C3-C6: \"human SSB RNAi agent\"; \"AS: UuAcAUuAAAGUCUGU87-C3pC6\", \"S: cAAcAGAcuuuAAuGu55-C3pC6\" (SEQ ID NO: 90, 91) (chain 1 UUACAUUAAAGUCUGUTG; chain 2 CAACAGACUUUAAUGUAA; C3pC6 3' end caps on both strands, further chemistry not given here)", "values": [
      {"measurement": "RNA interference in vitro", "setting": "human SSB", "value": "effective at mediating RNA interference in vitro"}
    ]}
  ]
}
